As a reminder, the inhibition is the share of the control response that was lost under treatment. As usually defined, the pIC50 is the negative decadic logarithm of the IC50, by convention in mol/L.

pIC50: −log10 of the molar value. Active and inactive are the calls of the source. The rule behind the calls is not given here.

Test [1] deals with HCT-116. Kind of test: Anticancer activity against human HCT116 cells assessed as growth inhibition at 50 uM by CCK-8 assay. The class given is functional. Background: Tetrazolium dyes change colour on reduction, which living cells bring about.
In test [2] the test system is HCT-116. Kind of test: Anticancer activity against human HCT116 cells assessed as growth inhibition by CCK-8 assay. Type of test: functional, cell-based.
Test [3] has as its system HCT-116. Kind of test: Induction of apoptosis in human HCT116 cells at 30 uM after 30 hrs by annexin-V/7-AAD staining based flow cytometry. Type of test: functional. In general terms: A flow cytometer gives signals particle by particle.
The subject of test [4] is HCT-116. Kind of test: Induction of DNA damage in human HCT116 cells at G0/G1 phase at 30 uM after 24 hrs by gamma-H2AX-staining based-flow cytometry. Type of test: functional, cell-based.
Test [5] deals with HCT-116. Kind of test: Induction of DNA damage in human HCT116 cells at G0/G1 phase at 20 nM after 24 hrs by gamma-H2AX-staining based-flow cytometry. The class given is functional, cell-based.
In test [6] the test system is HCT-116. Nature of the test: Increase in mitotic index in human HCT116 cells at 20 nM after 20 and 24 hrs by flow cytometry. The class given is functional, cell-based.
The subject of test [7] is HCT-116. Nature of the test: Induction of DNA damage in human HCT116 cells at G0/G1 phase at 100 nM after 24 hrs by gamma-H2AX-staining based-flow cytometry. Type of test: functional, cell-based.
For test [8], the system named is HCT-116. Nature of the test: Decrease in mitotic index in human HCT116 cells at 100 nM after 20 and 24 hrs by flow cytometry. Type of test: functional, cell-based.
In test [9] the test system is HCT-116. Kind of test: Cell cycle arrest in human HCT116 cells assessed as increase in number of cells at G2/M phase at 20 and 30 uM after 20 hrs by propidium-iodide staining based flow cytometry. The class given is functional.
Test [10] concerns HCT-116. Kind of test: Cell cycle arrest in human HCT116 cells assessed as decrease in number of cells at G0/G1 phase at 20 and 30 uM after 20 hrs by propidium-iodide staining based flow cytometry. Type of test: functional.
The test system of test [11] is HCT-116. Nature of the test: Cell cycle arrest in human HCT116 cells assessed as decrease in number of cells at S phase at 20 and 30 uM after 20 hrs by propidium-iodide staining based flow cytometry. Type of test: functional.
Test [12] deals with HCT-116. Nature of the test: Induction of DNA damage in human HCT116 cells at G0/G1 phase at 20 and 30 uM after 24 hrs by gamma-H2AX-staining based-flow cytometry. Type of test: functional, cell-based.
Test [13] concerns HCT-116. Kind of test: Decrease in mitotic index in human HCT116 cells at 30 and 50 uM by flow cytometry. The following applies: TDE = time-dependent effect. The class given is functional, cell-based.
The test system of test [14] is HCT-116. Kind of test: Decrease in mitotic index in human HCT116 cells after 20 and 24 hrs by flow cytometry. Type of test: functional, cell-based.

Take `CCOC(=O)c1csc(-c2csc(-c3csc([C@H](C)NC(=O)OC(C)(C)C)n3)n2)n1`: the inhibition result in the test with HCT-116 [1] was “Active”.

For the compound `C[C@@H](NC(=O)OC(C)(C)C)c1nc(-c2nc(-c3nc(C(N)=O)cs3)cs2)cs1`, the inhibition at 50 µM in the test on HCT-116 [1] amounted to 70%. In addition, the pIC50 in the test on HCT-116 [2] was 4.65. In the test on HCT-116 [3], this compound registered an Activity of 30%. In addition, in the test with HCT-116 [4], the outcome was Active.

Turning to `CC(=O)O[C@H]1C(=O)[C@@]2(C)[C@H]([C@H](OC(=O)c3ccccc3)[C@]3(O)C[C@H](OC(=O)[C@H](O)[C@@H](NC(=O)c4ccccc4)c4ccccc4)C(C)=C1C3(C)C)[C@]1(OC(C)=O)CO[C@@H]1C[C@@H]2O`, the outcome in the test on HCT-116 [5] and in the test on HCT-116 [6] was Active.

Regarding `C[C@H](NC(=O)OC(C)(C)C)c1nc(-c2nc(-c3nc(C(N)=S)cs3)cs2)cs1`, in the test on HCT-116 [1], the inhibition at 50 µM was found to be 70%. In addition, in the test with HCT-116 [2], the pIC50 is 4.42.

On to `C[C@@H](NC(=O)OC(C)(C)C)c1nc(-c2nc(-c3nc(C(N)=S)cs3)cs2)cs1`, for which, in the test on HCT-116 [1], the inhibition at 50 µM was found to be 70%. Further, the pIC50 with HCT-116 [2] is 4.34.

Regarding `CCOC(=O)c1csc(-c2csc(-c3csc([C@@H](C)NC(=O)OC(C)(C)C)n3)n2)n1`, the inhibition entry with HCT-116 [1] is “Active”.

Regarding `COc1cccc2c1C(=O)c1c(O)c3c(c(O)c1C2=O)C[C@@](O)(C(=O)CO)C[C@@H]3O[C@H]1C[C@H](N)[C@H](O)[C@H](C)O1`, the result in the test on HCT-116 [7] was Active. Besides, the inhibition result in the test with HCT-116 [8] was “Active”.

`C[C@H](NC(=O)OC(C)(C)C)c1nc(-c2nc(-c3nc(C(N)=O)cs3)cs2)cs1`: the inhibition at 50 µM in the test with HCT-116 [1] was found to be 70%. In addition, the pIC50 with HCT-116 [2] is 5.12. In addition, the Activity with HCT-116 [3] is on record as 60%. In addition, the outcome with HCT-116 [9], in the test with HCT-116 [10], with HCT-116 [11] and in the test on HCT-116 [12] was Active. Moreover, the inhibition entry is “tde” in the test on HCT-116 [13] and “Dose-dependent effect” in the test on HCT-116 [14].

These data come from ChEMBL document CHEMBL3632493, “Design, synthesis and anticancer mechanistic studies of linked azoles” (Medchemcomm, 2015).
